# From PubChem BioAssay AID2060508 (Molecular Pharmacology Branch, DTP, NCI, 2025)
# Tested on: 454973-116-R2-J3-PDC spheroids, viability, % test/control
# Assay: Anticancer human tumor 454973-116-R2-J3-PDC patient-derived pancreatic carcinoma cell line growth inhibition [GQUAD]
# Settings: spheroids with HUVEC and MSC; for viability, T/C: stronger effect = lower value
# Source text: DNA G-quadruplex Stabilizer Agents in Combinations in Complex Spheroids
# A high-throughput screen of multi-cell type tumor spheroids was designed to identify active combinations of DNA G-quadruplex stabilizer agents and targeted small molecules. Complex spheroids include a stromal component modeled by human endothelial cells (HUVEC) and fibroblasts modeled by human mesenchymal stem cells (MSCs). The concentration ranges selected for each drug and investigational agent were based upon clinically achievable concentrations if the clinical Cmax of the agent was known.
# Compounds. The drugs and investigational agents: pidnarulex (CX-5461; NSC782164), APTO-253 (NSC789042), BRACO-19 (NSC847499), peposertib (NSC802822), ceralasertib (NSC780249), elimusertib (NSC800525), camonsertib (NSC841442), AZD-1390 (NSC803789), olaparib (NSC753686), talazoparib (NSC767125), ART-558 (NSC835418), sotorasib (NSC818433), MRTX-1133 (NSC836407), SN-38 (NSC673596), topotecan (NSC609699), etoposide (NSC141540), doxorubicin (NSC123127), gemcitabine (NSC613327), 5-fluorouracil (NSC19893), paclitaxel (NSC125973), vemurafenib (NSC761431), panobinostat (NSC761190), R-306465 (JNJ-16241199; NSC773264), adavosertib (NSC754352), TP-3654 (NSC805149), carboplatin (NSC241240), KSQ-4279 (NSC840948), and staurosporine (NSC755774) were obtained from the National Cancer Institute (NCI) Developmental Therapeutics Program Chemical Repository (34). The FDA-approved anticancer drug set is available from the NCI Developmental Therapeutics Program. […] The stock solutions were prepared in dimethyl sulfoxide (DMSO, Sigma-Aldrich, St. Louis, MO, cat. D2650) at 800-fold the tested concentration and stored at -70 degrees C prior to their use. All drugs and investigational agents were tested over a range starting from a high concentration at or near the clinical Cmax and decreasing in half-log increments. If the clinical Cmax for an agent had not been determined, the highest concentration tested was 10 microM.
# 2.3 Cell Culture. All cells were maintained in an incubator at 37 degrees C and 5% CO2 with 95% humidity. The PDC lines were cultured according to standard operating procedures established by the NCI PDMR. All PDCs were thawed and cultured in Matrigel-coated flasks prepared with a working solution of 1X Ham's F-12 nutrient mix, without supplementation (Invitrogen, cat. 11765054), 100 U/mL penicillin-streptomycin (Invitrogen, cat. 15140122), and 2.5% Matrigel (Corning Inc., cat. 354248) for the first three passages. The 857933-349-R-J2-PDC line was cultured in 6C/Colon 1B media, which includes advanced DMEM/F-12 (Thermo Fisher Scientific, cat. 12634028), 10 mM HEPES (Thermo Fisher Scientific, cat. 15630080), 1X GlutaMAX supplement (Thermo Fisher Scientific, cat. 35050061), 0.1 mg/mL primocin (InvivoGen, cat. ant-pm-2), 10% defined fetal bovine serum, heat inactivated (HyClone Laboratories Inc., cat. SH30070.03HI), 50% L-WRN conditioned media (ATCC, cat. CRL-3276), 1.25 mM N-Acetyl-L-cysteine (Sigma-Aldrich, cat. A9165), 10 mM nicotinamide (Sigma-Aldrich, cat. N0636), 1X B-27 supplement (Thermo Fisher Scientific, cat. 17504044), 1X N-2 supplement (Thermo Fisher Scientific, cat. 17502048), 10 microM Y-27632 dihydrochloride (Tocris Bioscience, cat. 1254), and 50 ng/mL human EGF recombinant protein (Thermo Fisher Scientific, cat. PHG0311). The 485176-168-R4-J1-PDC line was cultured in Panc media, which includes all 6C/Colon 1B media components plus 100 ng/mL human FGF-10 (Thermo Fisher Scientific, cat. 100-26), 500 nM SB-431542 (Selleckchem, cat. S1067), and gastrin (Tocris, cat. 3006).
# […]
# 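Note: spheroids exposed to compounds for seven days.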
structure (smiles),measurement,setting,value
CN(C)c1ccc(Nc2c3ccc(NC(=O)CCN4CCCC4)cc3nc3cc(NC(=O)CCN4CCCC4)ccc23)cc1,"viability, T/C",compound 0.0316 µM,107% [middle of 12 runs]
same,"viability, T/C",compound 0.1 µM,106% [middle of 12 runs]
same,"viability, T/C",compound 0.316 µM,103% [middle of 12 runs]
same,"viability, T/C",compound 1 µM,98.5% [middle of 12 runs]
same,"viability, T/C",compound 3.16 µM,94.8% [middle of 12 runs]
same,"viability, T/C",compound 10 µM,74% [middle of 12 runs]
same,IC50,"compound alone, run of 04/22/2024",> 10000 nM
COc1cccc2c1C(=O)c1c(O)c3c(c(O)c1C2=O)CC(O)(C(=O)CO)CC3OC1CC(N)C(O)C(C)O1 (centres undefined) + Cc1[nH]c2ccc(F)cc2c1-c1nc2c3cccnc3c3ncccc3c2[nH]1,IC50,"curve of first compound, second compound 0.0316 µM",166 nM
same,IC50,"curve of first compound, second compound 0.1 µM",188 nM
same,IC50,"curve of first compound, second compound 0.316 µM",154 nM
same,IC50,"curve of first compound, second compound 1 µM",143 nM
same,IC50,"curve of first compound, second compound 3.16 µM",145 nM
same,IC50,"curve of first compound, second compound 10 µM",158 nM
same,"viability, T/C","second compound 0.0316 µM, first compound 0.0316 µM",106%
same,"viability, T/C","second compound 0.0316 µM, first compound 0.1 µM",63.1%
same,"viability, T/C","second compound 0.0316 µM, first compound 0.316 µM",30.4%
same,"viability, T/C","second compound 0.0316 µM, first compound 1 µM",22.6%
same,"viability, T/C","second compound 0.0316 µM, first compound 3.16 µM",11.4%
same,"viability, T/C","second compound 0.0316 µM, first compound 10 µM",0.63%
same,"viability, T/C","second compound 0.1 µM, first compound 0.0316 µM",97.8%
same,"viability, T/C","second compound 0.1 µM, first compound 0.1 µM",69.8%
same,"viability, T/C","second compound 0.1 µM, first compound 0.316 µM",27.2%
same,"viability, T/C","second compound 0.1 µM, first compound 1 µM",28.9%
same,"viability, T/C","second compound 0.1 µM, first compound 3.16 µM",11%
same,"viability, T/C","second compound 0.1 µM, first compound 10 µM",0.58%
same,"viability, T/C","second compound 0.316 µM, first compound 0.0316 µM",96.5%
same,"viability, T/C","second compound 0.316 µM, first compound 0.1 µM",59.7%
same,"viability, T/C","second compound 0.316 µM, first compound 0.316 µM",27.6%
same,"viability, T/C","second compound 0.316 µM, first compound 1 µM",28.2%
same,"viability, T/C","second compound 0.316 µM, first compound 3.16 µM",11.8%
same,"viability, T/C","second compound 0.316 µM, first compound 10 µM",0.44%
same,"viability, T/C","second compound 1 µM, first compound 0.0316 µM",90.6%
same,"viability, T/C","second compound 1 µM, first compound 0.1 µM",61.4%
same,"viability, T/C","second compound 1 µM, first compound 0.316 µM",24.3%
same,"viability, T/C","second compound 1 µM, first compound 1 µM",26.2%
same,"viability, T/C","second compound 1 µM, first compound 3.16 µM",11.1%
same,"viability, T/C","second compound 1 µM, first compound 10 µM",0.62%
same,"viability, T/C","second compound 3.16 µM, first compound 0.0316 µM",93.1%
same,"viability, T/C","second compound 3.16 µM, first compound 0.1 µM",59.6%
same,"viability, T/C","second compound 3.16 µM, first compound 0.316 µM",27.6%
same,"viability, T/C","second compound 3.16 µM, first compound 1 µM",24.4%
same,"viability, T/C","second compound 3.16 µM, first compound 3.16 µM",14.8%
same,"viability, T/C","second compound 3.16 µM, first compound 10 µM",0.52%
same,"viability, T/C","second compound 10 µM, first compound 0.0316 µM",81.9%
same,"viability, T/C","second compound 10 µM, first compound 0.1 µM",64.7%
same,"viability, T/C","second compound 10 µM, first compound 0.316 µM",27%
same,"viability, T/C","second compound 10 µM, first compound 1 µM",27.1%
same,"viability, T/C","second compound 10 µM, first compound 3.16 µM",11.5%
same,"viability, T/C","second compound 10 µM, first compound 10 µM",0.75%
